Source: US9309242B2, “Substituted pyrido[2,3-b]pyrazines as FGFR kinase inhibitors” (priority 2011, dated 2016)

Assays:
[1] = molecular target: FGFR2 (h) (Homo sapiens, UniProt P21802); experiment: FGFR2 (enzymatic assay), TR-FRET; format: biochemical; settings: enzymatic assay; read-out: FGFR 2 pIC50 (converted)
Procedure, shortened: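 Kinase reaction in 50 mM HEPES pH 7.5 with 6 mM MnCl2, 1 mM DTT, 0.1 mM Na3VO4 and 0.01% Triton-X-100 contained FGFR2 (h) at 150 ng/ml. Biotinylated Flt3 peptide (500 nM) served as substrate with 0.4 μM ATP, compound added in 1% DMSO final.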

[2] = molecular target: Ba/F3-FGFR4-transfected cells (Homo sapiens, UniProt P22455); experiment: Ba/F3-FGFR4 cellular proliferation assay, Alamar Blue; format: cell-based
Chain of Ba/F3-FGFR4-transfected cells (P22455 whole entry, change not shown): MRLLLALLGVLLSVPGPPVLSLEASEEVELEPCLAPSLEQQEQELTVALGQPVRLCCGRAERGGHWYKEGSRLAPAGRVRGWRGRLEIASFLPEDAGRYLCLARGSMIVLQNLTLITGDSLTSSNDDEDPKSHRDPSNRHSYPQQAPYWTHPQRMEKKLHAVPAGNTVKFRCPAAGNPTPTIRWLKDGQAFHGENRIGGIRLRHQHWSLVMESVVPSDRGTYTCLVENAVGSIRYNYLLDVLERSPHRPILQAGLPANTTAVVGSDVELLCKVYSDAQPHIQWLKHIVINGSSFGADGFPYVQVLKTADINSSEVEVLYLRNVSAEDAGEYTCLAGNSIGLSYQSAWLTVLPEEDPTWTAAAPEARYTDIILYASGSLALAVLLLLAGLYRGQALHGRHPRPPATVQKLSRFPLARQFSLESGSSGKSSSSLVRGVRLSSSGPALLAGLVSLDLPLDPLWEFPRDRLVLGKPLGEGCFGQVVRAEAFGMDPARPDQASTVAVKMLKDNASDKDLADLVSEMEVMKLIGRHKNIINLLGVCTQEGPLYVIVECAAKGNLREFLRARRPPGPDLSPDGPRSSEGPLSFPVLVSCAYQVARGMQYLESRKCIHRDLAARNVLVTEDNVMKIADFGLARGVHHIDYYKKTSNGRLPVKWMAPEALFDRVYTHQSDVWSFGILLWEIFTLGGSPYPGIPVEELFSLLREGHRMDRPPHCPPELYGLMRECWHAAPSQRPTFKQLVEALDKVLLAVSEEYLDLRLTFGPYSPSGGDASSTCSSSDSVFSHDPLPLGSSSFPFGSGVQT
Procedure, shortened: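 Ba/F3-FGFR4 cells (20000/well) in phenol red-free RPMI-1640 with 10% FBS are exposed to compound for 24 h at 37 °C, 5% CO2. Alamar Blue (resazurin) is then added for 4 h and fluorescence read at ex 540/em 590 nm.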

[3] = molecular target: FGFR4 (h) (Homo sapiens, UniProt P22455); experiment: FGFR4 (enzymatic assay), TR-FRET; format: biochemical; settings: FGFR 4 pIC50, enzymatic assay
Chain of FGFR4 (h) (P22455 22-802): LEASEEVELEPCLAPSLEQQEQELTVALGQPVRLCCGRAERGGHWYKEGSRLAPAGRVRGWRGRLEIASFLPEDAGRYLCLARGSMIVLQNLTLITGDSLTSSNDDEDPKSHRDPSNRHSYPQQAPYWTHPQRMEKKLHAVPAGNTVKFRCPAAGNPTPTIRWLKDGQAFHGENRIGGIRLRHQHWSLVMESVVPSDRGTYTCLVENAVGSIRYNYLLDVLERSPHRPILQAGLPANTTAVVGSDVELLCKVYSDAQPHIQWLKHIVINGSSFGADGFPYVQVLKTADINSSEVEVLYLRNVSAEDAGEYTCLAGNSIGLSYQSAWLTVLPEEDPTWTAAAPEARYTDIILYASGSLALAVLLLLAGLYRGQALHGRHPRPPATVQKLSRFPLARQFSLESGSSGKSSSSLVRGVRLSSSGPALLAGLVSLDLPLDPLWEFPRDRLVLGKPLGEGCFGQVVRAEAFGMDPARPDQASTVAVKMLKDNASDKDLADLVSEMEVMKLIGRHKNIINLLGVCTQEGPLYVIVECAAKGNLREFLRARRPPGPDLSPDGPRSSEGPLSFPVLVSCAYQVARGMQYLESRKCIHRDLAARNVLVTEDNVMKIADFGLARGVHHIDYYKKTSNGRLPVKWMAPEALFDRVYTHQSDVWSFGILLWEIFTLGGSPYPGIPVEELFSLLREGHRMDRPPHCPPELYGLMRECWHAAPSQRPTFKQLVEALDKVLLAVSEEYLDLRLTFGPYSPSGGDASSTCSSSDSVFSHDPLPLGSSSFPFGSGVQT

[4] = molecular target: FGFR1 (h) (Homo sapiens, UniProt P11362); experiment: FGFR1 (enzymatic assay), TR-FRET; format: biochemical; settings: read-out: FGFR 1 pIC50 (converted)
[5] = tested on: Ba/F3-FGFR1-transfected cells; experiment: Ba/F3-FGFR1 (plus IL3) cellular proliferation assay, counterscreen with 10 ng/ml murine IL3; format: cell-based; settings: plus IL3 (10 ng/ml murine IL3, counterscreen); read-out: BAF3-FGFR1 (PLUS IL3) pIC50 (converted)
Procedure, shortened: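 Ba/F3-FGFR1 cells (20000/well) in RPMI-1640 with 10% FBS exposed to compound for 24 h at 37° C., 5% CO2, then Alamar Blue (resazurin) added for 4 h; fluorescence read at ex 540/em 590 nm. Counterscreen run identically with 10 ng/ml murine IL3.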

[6] = tested on: Ba/F3-FGFR3-transfected cells; experiment: Ba/F3-FGFR3 (plus IL3) cellular proliferation assay, counterscreen with 10 ng/ml murine IL3; format: cell-based; settings: plus IL3 (10 ng/ml murine IL3, counterscreen); read-out: BAF3-FGFR3 (PLUS IL3) pIC50 (converted)
Procedure, shortened: (§1)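 Ba/F3 cells transfected with FGFR3, 20000/well in phenol red-free RPMI-1640 with 10% FBS, exposed to compound for 24 h at 37 °C, 5% CO2. Alamar Blue (resazurin) added for 4 h more; fluorescence read at ex 540/em 590 nm. Counterscreen run the same way with 10 ng/ml murine IL3.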

[7] = molecular target: KDR (h) (Homo sapiens, UniProt P35968); experiment: KDR (VEGFR2) (enzymatic assay), TR-FRET; format: biochemical; settings: read-out: VEGFR 2 (KDR) pIC50 (converted)
Chain of KDR (h) (P35968 20-1356): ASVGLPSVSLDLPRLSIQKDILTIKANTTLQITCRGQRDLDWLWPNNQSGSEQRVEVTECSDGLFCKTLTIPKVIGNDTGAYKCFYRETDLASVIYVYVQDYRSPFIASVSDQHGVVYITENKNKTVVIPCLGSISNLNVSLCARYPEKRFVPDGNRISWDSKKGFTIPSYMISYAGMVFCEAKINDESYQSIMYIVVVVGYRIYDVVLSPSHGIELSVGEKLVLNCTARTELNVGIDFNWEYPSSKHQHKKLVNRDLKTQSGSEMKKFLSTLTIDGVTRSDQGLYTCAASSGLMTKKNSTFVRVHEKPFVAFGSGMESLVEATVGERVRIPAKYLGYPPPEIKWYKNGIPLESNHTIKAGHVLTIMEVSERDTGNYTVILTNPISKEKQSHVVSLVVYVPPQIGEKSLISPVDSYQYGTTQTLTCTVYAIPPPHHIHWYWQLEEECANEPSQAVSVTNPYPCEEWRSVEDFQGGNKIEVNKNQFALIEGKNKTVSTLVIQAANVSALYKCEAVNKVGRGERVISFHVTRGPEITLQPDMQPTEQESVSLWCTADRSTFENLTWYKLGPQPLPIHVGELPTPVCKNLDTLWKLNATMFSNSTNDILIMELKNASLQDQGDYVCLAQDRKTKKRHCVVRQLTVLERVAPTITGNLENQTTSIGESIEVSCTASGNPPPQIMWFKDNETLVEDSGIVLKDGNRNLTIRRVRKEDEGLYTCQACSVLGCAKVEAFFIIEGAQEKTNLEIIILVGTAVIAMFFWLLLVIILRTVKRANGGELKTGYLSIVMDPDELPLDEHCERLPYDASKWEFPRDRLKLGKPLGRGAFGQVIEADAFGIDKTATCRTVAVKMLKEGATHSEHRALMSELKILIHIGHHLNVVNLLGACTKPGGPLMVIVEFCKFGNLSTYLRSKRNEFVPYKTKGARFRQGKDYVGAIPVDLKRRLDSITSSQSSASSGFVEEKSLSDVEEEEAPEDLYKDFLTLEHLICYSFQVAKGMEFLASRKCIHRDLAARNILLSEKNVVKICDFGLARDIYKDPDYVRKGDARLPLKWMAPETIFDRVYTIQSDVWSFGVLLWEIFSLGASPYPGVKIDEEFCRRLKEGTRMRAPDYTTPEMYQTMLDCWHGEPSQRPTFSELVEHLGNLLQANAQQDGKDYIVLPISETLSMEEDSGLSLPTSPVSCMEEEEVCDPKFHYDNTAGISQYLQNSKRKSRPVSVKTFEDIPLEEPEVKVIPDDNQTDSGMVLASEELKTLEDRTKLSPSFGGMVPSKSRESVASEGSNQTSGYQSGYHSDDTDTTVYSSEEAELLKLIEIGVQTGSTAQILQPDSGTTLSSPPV
Procedure, shortened: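 Human KDR (150 ng/ml) was reacted with 500 nM Btn-Flt3 and 3 μM ATP in 50 mM HEPES pH 7.5, 6 mM MnCl2, 1 mM DTT, 0.1 mM Na3VO4, 0.01% Triton X-100, 1% DMSO, for 120 min at room temperature. Phosphorylation detected by TR-FRET (Eu-anti-P-Tyr/SA-XL665, 60 min), read in RFU.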

[8] = molecular target: T1, Ba/F3-FGFR3-transfected cells (Homo sapiens, UniProt P22607); experiment: Ba/F3-FGFR3 (minus IL3) cellular proliferation assay, Alamar Blue; format: cell-based
T1 construct: BAF3-FGFR3 (MIN IL3) pIC50; other: minus IL3
Procedure, shortened: as §1

[9] = molecular target: FGFR3 (h) (Homo sapiens, UniProt P22607); experiment: FGFR3 (enzymatic assay), TR-FRET; format: biochemical; settings: read-out: FGFR 3 pIC50 (converted)
Chain of FGFR3 (h) (P22607 23-806): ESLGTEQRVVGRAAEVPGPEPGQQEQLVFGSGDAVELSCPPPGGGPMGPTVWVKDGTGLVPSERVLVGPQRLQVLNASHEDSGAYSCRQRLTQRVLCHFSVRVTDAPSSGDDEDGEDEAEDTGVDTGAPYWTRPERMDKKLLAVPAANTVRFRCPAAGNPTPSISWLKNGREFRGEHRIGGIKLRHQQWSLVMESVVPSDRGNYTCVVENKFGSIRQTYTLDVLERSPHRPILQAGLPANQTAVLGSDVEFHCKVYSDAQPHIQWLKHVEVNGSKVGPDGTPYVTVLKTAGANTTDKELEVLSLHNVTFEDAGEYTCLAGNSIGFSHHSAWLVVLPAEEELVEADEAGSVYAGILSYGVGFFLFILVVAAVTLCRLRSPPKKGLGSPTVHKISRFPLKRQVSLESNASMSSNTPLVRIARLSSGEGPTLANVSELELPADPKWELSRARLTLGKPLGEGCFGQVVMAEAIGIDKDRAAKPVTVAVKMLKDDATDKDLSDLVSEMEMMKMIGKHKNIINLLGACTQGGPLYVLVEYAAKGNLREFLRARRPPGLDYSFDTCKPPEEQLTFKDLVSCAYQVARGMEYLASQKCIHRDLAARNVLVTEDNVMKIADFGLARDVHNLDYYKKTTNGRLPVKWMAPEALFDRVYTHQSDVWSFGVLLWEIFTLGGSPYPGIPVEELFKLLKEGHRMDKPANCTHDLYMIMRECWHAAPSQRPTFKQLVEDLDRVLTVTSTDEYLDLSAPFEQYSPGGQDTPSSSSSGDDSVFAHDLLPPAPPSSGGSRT
Text: Time-Resolved Fluorescence Resonance Energy Transfer (TR-FRET) signal (ex340 nm.

[10] = molecular target: T2, Ba/F3-FGFR1-transfected cells (Homo sapiens, UniProt P11362); experiment: Ba/F3-FGFR1 (minus IL3) cellular proliferation assay, Alamar Blue; format: cell-based
T2 construct: BAF3-FGFR1 (MIN IL3) pIC50; other: minus IL3
Procedure, shortened: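 Ba/F3-FGFR1 cells (20000 per well) were exposed to compound for 24 h at 37 °C in RPMI-1640 with 10% FBS. Alamar Blue (resazurin) was then added for 4 h, and fluorescence was read at ex 540/em 590 nm.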

Chain of FGFR2 (h) (P21802 22-821): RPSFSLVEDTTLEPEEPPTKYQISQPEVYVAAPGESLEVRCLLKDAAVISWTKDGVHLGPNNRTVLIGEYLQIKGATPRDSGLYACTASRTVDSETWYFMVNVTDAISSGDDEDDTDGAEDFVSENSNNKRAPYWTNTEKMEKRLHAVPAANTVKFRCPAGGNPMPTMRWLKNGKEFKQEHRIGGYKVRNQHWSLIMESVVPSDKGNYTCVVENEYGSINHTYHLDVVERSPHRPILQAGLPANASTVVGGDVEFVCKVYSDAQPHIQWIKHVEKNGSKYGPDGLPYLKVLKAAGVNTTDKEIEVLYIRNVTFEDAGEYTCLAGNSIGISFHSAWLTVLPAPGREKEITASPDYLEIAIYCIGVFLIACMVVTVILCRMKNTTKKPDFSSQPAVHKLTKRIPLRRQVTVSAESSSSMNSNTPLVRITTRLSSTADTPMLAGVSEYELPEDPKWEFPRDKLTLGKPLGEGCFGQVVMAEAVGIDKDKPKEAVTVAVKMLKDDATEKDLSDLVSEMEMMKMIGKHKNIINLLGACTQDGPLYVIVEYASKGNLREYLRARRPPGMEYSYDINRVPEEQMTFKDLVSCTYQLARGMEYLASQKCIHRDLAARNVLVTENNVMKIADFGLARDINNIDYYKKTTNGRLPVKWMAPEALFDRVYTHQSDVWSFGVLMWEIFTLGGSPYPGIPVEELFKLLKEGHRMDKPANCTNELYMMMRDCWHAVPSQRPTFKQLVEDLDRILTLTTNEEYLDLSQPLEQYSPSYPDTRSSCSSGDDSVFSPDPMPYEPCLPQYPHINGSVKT

Compound	IC50 [1]	BAF3-FGFR4 pIC50 [2]	IC50 [3]	IC50 [4]	IC50 [5]	IC50 [6]	IC50 [7]	BAF3-FGFR3 (MIN IL3) pIC50 [8]	IC50 [9]	BAF3-FGFR1 (MIN IL3) pIC50 [10]
COc1cc(OC)cc(N(Cc2ncn(CCO)n2)c2ccc3ncc(-c4cnn(C)c4)nc3n2)c1 [Compound 205]	5.13 nM	5.62	47.9 nM	3.89 nM	> 10000 nM	> 10000 nM	38.9 nM	6.20	14.5 nM	6.31
CCOCc1c[nH]c(CN(c2ccc3ncc(-c4cnn(C)c4)nc3n2)c2cc(OC)cc(OC)c2F)n1 [Compound 206]	4.17 nM	7.34	2.95 nM	1.38 nM	> 10000 nM	> 10000 nM	27.5 nM	~8.12	2.51 nM	7.89
COc1cc(OC)c(F)c(N(Cc2ncc[nH]2)c2ccc3ncc(-c4cnn(C(CO)CCl)c4)nc3n2)c1 (stereo not shown) [Compound 209]	2.4 nM	7.92	1.12 nM	0.776 nM	> 10000 nM	> 10000 nM	7.59 nM	8.25	1.32 nM	8.71
COc1cc(OC)c(F)c(N(Cc2ncc[nH]2)c2ccc3ncc(-c4ccncc4)nc3n2)c1 [Compound 211]	~2.34 nM	7.29	2.29 nM	1 nM	> 10000 nM	> 10000 nM	36.3 nM	~8.11	1.51 nM	8.08
COc1cc(OC)cc(N(CCO)c2ccc3ncc(-c4ccncc4)nc3n2)c1 [Compound 213]	5.62 nM	6.15	25.1 nM	4.27 nM	> 10000 nM	> 10000 nM	245 nM	~6.7	3.8 nM	6.57
COC(=O)CN(c1ccc2ncc(-c3cnn(C)c3)nc2n1)c1cc(OC)cc(OC)c1F [Compound 214]	2.57 nM	6.52	11.2 nM	2.4 nM	> 10000 nM	> 10000 nM	145 nM	~7.18	2.4 nM	7.08
COc1cc(OC)c(F)c(N(Cc2ncc[nH]2)c2ccc3ncc(N4CCOCC4)nc3n2)c1F [Compound 215]	2.09 nM	7.54	2.14 nM	0.741 nM	> 10000 nM	> 10000 nM	52.5 nM	8.18	~1.26 nM	8.25
COc1cc(OC)cc(N(Cc2nnco2)c2ccc3ncc(-c4cnn(C)c4)nc3n2)c1 [Compound 217]	5.89 nM	6.03	23.4 nM	7.94 nM	> 10000 nM	> 10000 nM	162 nM	~6.68	3.89 nM	6.59
COc1cc(OC)c(F)c(N(Cc2nc(OC)cc(OC)n2)c2ccc3ncc(-c4cnn(C)c4)nc3n2)c1 [Compound 220]	6.92 nM	5.83	29.5 nM	4.17 nM	> 10000 nM	> 10000 nM	50.1 nM	5.91	9.33 nM	6.32
COc1cc(OC)c(F)c(N(CCNC2COC2)c2ccc3ncc(-c4cnn(C)c4)nc3n2)c1 [Compound 221]	3.09 nM	6.98	6.61 nM	1.51 nM	> 10000 nM	> 10000 nM	~29.5 nM	~7.67	0.891 nM	7.53
COc1cc(OC)c(F)c(N(CCN(C2COC2)C2COC2)c2ccc3ncc(-c4cnn(C)c4)nc3n2)c1 [Compound 222]	5.25 nM	6.55	15.5 nM	2.24 nM	> 10000 nM	> 10000 nM	40.7 nM	~7.19	3.89 nM	7.12
CCn1cc(-c2cnc3ccc(N(Cc4ncc[nH]4)c4cc(OC)cc(OC)c4F)nc3n2)cn1 [Compound 223]	1.58 nM	7.95	1.29 nM	0.55 nM	> 10000 nM	> 10000 nM	7.08 nM	~8.58	1.23 nM	8.85
COc1cc(OC)c(F)c(N(CC(=O)c2cnn(C)c2)c2ccc3ncc(-c4cnn(C)c4)nc3n2)c1 [Compound 225]	~7.08 nM	5.96	36.3 nM	6.61 nM	> 10000 nM	> 10000 nM	200 nM	6.29	7.76 nM	6.41
COc1cc(OC)cc(N(Cc2ncc[nH]2)c2ccc3ncc(-c4cnn(C5CCNCC5)c4)nc3n2)c1 [Compound 227]	1.45 nM	6.91	1.82 nM	0.562 nM	> 10000 nM	> 10000 nM	12 nM	7.63	0.891 nM	7.73
COc1cc(OC)cc(N(Cc2n[nH]c(=O)o2)c2ccc3ncc(-c4cnn(C)c4)nc3n2)c1 [Compound 229]	5.62 nM	5.45	22.4 nM	4.9 nM	> 10000 nM	> 10000 nM	182 nM	6.05	4.07 nM	5.97
COc1cc(OC)c(F)c(N(CC(=O)NCCO)c2ccc3ncc(-c4cnn(C)c4)nc3n2)c1 [Compound 230]	7.41 nM	5.73	42.7 nM	7.59 nM	> 10000 nM	> 10000 nM	363 nM	6.18	7.94 nM	6.09
COc1cc(OC)c(F)c(N(CC(=O)O)c2ccc3ncc(-c4cnn(C)c4)nc3n2)c1 [Compound 231]	6.31 nM	5.02	17.8 nM	4.79 nM	> 10000 nM	> 10000 nM	200 nM	5.75	3.98 nM	5.27
COc1cc(OC)c(F)c(N(Cc2nc(CO)c[nH]2)c2ccc3ncc(-c4cnn(C)c4)nc3n2)c1 [Compound 232]	~2.75 nM	6.96	1.86 nM	0.813 nM	> 10000 nM	> 10000 nM	22.4 nM	7.81	1.29 nM	7.45
COc1cc(OC)c(F)c(N(CCO)c2ccc3ncc(-c4cnn(CCO)c4)nc3n2)c1 [Compound 233]	1.7 nM	6.91	2.88 nM	0.759 nM	> 10000 nM	> 10000 nM	25.7 nM	7.40	0.776 nM	7.49
